# Results from PMC3978495, “Synthesis and Preliminary Evaluation of a 2-Oxoquinoline Carboxylic Acid Derivative for PET Imaging the Cannabinoid Type 2 Receptor” (Pharmaceuticals, 2014).
# Where two headings read alike, the source gives them in different places.
# Legend:
# hCB2 = conditions: reported data; read-out: reported binding affinity towards human CB2; cited from earlier work
# human CB2 (hCB2) = human CB2 (hCB2) (Homo sapiens, UniProt P34972); experiment: Competition binding assay with [3H]CP-55,940, membranes of CHO-K1 cells transfected with hCB2
# Method: Frozen membrane preparations from CHO-K1 cells transfected with human CB1 (hCB1) and CB2 (hCB2), respectively (PerkinElmer, Waltham, MA, USA), were thawed on ice and diluted to a final protein concentration of 1 µg/mL in assay buffer (50 mM TRIS/HCl, 1 mM EDTA (Applichem, Darmstadt, Germany), 3 mM MgCl2, pH 7.4, containing 0.05% bovine serum albumin, BSA). […] All samples were prepared in triplicates. After 90 min, 3 mL ice cold assay buffer was added and samples were immediately filtered through Whatman GF/C filters (pre-soaked in 0.05% polyethylenimine) and washed twice with 3 mL ice cold assay buffer.
# hCB1 = conditions: reported data; read-out: reported binding affinity towards CB1; cited from earlier work
# human CB1 (hCB1) = target: T1, human CB1 (hCB1) (Homo sapiens, UniProt P21554); experiment: Competition binding assay with [3H]CP-55,940, membranes of CHO-K1 cells transfected with hCB1; conditions: three independent experiments, [3H]CP-55,940 1.4 nM, read-out: binding affinity (Ki) towards CB1
# T1 construct: purchased PerkinElmer, Waltham, MA, USA; host or cells: CHO-K1 cells (stably transfected), membrane preparation
# Method: All samples were prepared in triplicates.
# [1] = rat, in vivo, iv; for percentage of parent tracer radioactivity in blood plasma: Wistar
# Method: [^11C]KP23 was administered intravenously to a restrained Wistar rat (413 g) by tail vein injection (ca. 160 MBq). The animal was sacrificed by decapitation 30 min p.i. and blood and urine were collected. Whole blood was collected in heparin-coated tubes (BD Vacutainers, Plymouth, UK) and centrifuged at 5,000 g for 5 min, 4 °C. The proteins of the supernatant plasma and urine were precipitated by addition of an equal volume of acetonitrile and centrifuged at 5,000 g for another 5 min. The supernatants were filtered and analyzed by UPLC. For the determination of in vivo radiometabolites at 15 min p.i. blood samples were withdrawn from the tail vein opposite to the injection site.
# [2] = In vitro stability in mouse plasma; format: in vitro ADME; conditions: 37 °C, 40 min
# Method: (§1) To test the plasma stability of the radioligand, 10 µL (4 MBq) of [^11C]KP23 solution were added to phosphate buffer (300 µL, 4 mM NaH2PO4/Na2HPO4, 155 mM NaCl, pH 7.4), mouse and rat plasma (300 µL), respectively. The mixture was vortexed and four aliquots of 70 µL were incubated at 37 °C. Ice cold acetonitrile (100 µL) was added to stop the enzymatic reactions at different time points (0, 10, 20 and 40 min). After centrifugation (10,000 g, 3 min), the supernatant was passed through a filter (0.45 µm, Minisart SRP 4, Sartorius Stedim Biotech, Goettingen, Germany) and analyzed by UPLC.
# CB2 in rat spleen slices = target: T2, CB2 in rat spleen slices (Rattus norvegicus, UniProt Q9QZN9); experiment: In vitro autoradiography on rat spleen slices; format: binding
# T2 construct: performed on 20 µm tissue slices (rat/mouse spleen) adsorbed to SuperFrost Plus slides; from tissue; host or cells: rat spleen slices (20 µm)
# T2 sequence (Q9QZN9 1-360): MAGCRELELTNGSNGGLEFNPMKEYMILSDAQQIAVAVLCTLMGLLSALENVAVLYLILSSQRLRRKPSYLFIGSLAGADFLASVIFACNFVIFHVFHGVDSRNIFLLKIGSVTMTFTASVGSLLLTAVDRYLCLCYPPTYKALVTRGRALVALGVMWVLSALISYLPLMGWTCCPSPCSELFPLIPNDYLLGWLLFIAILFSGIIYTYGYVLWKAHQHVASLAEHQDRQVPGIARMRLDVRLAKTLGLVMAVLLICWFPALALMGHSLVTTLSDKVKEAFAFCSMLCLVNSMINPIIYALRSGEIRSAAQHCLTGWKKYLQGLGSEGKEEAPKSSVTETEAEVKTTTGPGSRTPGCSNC
# Method: (§2) In vitro autoradiography with [^11C]KP23 was performed on 20 µm tissue slices (rat/mouse spleen) adsorbed to SuperFrost Plus slides. Slices were thawed (10 min) on ice before pre-incubation with incubation buffer (50 mM TRIS/HCl, pH 7.4, containing 5% BSA) at 4 °C for 10 min. Excess solution was carefully removed and the tissue slices were dried in a ventilated hood for 10 min. Then slides were incubated with 0.6 or 0.2 nM [^11C]KP23 alone or together with specific CB2 agonist (GW405833, 1 µM) in incubation buffer. After incubation for 15 min at RT in a humid chamber, slides were washed twice with ice cold washing buffer (50 mM TRIS/HCl, pH 7.4, 1% BSA, 5% EtOH) for 2 min each and dipped twice in water. Dried slides were exposed to a phosphor imager plate for 30 min and the plate was scanned in a BAS5000 reader (Fujifilm, Dielsdorf, Switzerland).
# [3] = In vivo dynamic PET imaging in Wistar rats; set-up: species or system rat
# Method: PET scanning was performed with the GE VISTA eXplore PET/CT tomograph (Sedecal, Madrid, Spain). The scanner is characterized by high sensitivity (absolute central point source sensitivity of 4% for the […] energy windows) and an axial field of view of 4.8 cm. Male Wistar rats (278 ± 2 g, n = 2) were immobilized by isoflurane inhalation and the tracer was injected into a tail vein on the tomographic bed. Tracer accumulation in the spleen or brain were recorded by dynamic one-bed position PET scans over 60 min starting with the injection of 13 respectively 40 MBq (0.05 to 0.15 nmol) of [^11C]KP23. PET data was reconstructed by 3-dimensional FORE/2-dimensional OSEM in user-defined time frames with a voxel size of 0.3875 × 0.3875 × 0.775 mm. Singles and random corrections but no attenuation correction were applied. Image files were evaluated with the software PMOD v3.4 (PMOD Technologies Inc., Zurich, Switzerland). Time activity curves (TACs) of brain regions were generated with the implemented rat brain region of interest (ROI) template and TACs of the abdominal region with the respective ROIs generated by the PMOD segmentation tool. Spleen, liver and background TACs were confirmed by analysis of manually drawn regions of interest. Standardized uptake values (SUV) were calculated as tissue activities (Bq/cm^3), normalized to the injected dose per body weight (Bq/g).
# [4] = target: T3, CB2 in mouse spleen slices (Mus musculus, UniProt P47936); experiment: In vitro autoradiography on mouse spleen slices; format: binding
# T3 construct: performed on 20 µm tissue slices (rat/mouse spleen) adsorbed to SuperFrost Plus slides; from tissue; host or cells: mouse spleen slices (20 µm)
# Method: as §2
# [5] = In vitro stability in rat plasma; format: in vitro ADME; conditions: 37 °C, 40 min
# Method: as §1
# [6] = In vitro stability in phosphate buffer (PBS); format: physicochemical; conditions: PBS pH 7.4, 37 °C, 40 min
# Method: as §1
# T3 sequence (P47936 whole entry): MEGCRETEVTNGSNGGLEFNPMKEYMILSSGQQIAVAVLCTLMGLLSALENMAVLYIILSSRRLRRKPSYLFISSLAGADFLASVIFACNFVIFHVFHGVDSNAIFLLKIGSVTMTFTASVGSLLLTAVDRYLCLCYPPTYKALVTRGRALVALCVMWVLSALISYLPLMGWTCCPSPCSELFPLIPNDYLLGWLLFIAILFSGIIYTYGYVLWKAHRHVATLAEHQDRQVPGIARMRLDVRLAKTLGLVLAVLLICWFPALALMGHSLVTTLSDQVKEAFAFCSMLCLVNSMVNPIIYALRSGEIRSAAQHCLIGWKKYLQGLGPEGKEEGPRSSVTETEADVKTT
# T1 sequence (P21554 whole entry): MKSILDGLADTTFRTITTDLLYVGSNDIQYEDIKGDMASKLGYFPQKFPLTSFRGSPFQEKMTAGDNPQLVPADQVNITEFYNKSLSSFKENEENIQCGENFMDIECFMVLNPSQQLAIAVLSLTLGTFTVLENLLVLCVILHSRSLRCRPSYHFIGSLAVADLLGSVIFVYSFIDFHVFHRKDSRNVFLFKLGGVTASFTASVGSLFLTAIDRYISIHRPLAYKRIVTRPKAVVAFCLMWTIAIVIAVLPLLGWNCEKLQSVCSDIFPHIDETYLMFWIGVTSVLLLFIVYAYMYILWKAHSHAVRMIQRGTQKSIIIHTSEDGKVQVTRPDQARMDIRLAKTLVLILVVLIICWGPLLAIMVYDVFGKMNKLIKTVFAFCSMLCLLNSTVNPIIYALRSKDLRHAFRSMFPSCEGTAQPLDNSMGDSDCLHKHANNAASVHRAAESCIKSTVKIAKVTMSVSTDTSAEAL
# Chain of human CB2 (hCB2) (P34972 whole entry): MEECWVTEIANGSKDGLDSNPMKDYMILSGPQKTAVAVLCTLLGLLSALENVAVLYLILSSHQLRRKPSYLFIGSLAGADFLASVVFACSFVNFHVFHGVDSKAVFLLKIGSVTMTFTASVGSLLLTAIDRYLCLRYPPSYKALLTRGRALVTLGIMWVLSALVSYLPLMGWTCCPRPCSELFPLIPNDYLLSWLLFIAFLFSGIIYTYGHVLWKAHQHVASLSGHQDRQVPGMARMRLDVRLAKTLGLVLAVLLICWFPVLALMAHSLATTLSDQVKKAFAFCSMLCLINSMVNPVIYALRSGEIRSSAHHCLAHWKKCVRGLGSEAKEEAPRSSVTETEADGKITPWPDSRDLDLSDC
structure (smiles),measurement,setting,value
"CCCCOc1c(OC)ccc2cc(C(=O)NCC(F)c3ccccc3)c(=O)[nH]c12 (stereo not drawn) [KP23, 8-butoxy-N-(2-fluoro-2-phenylethyl)-7-methoxy-2-oxo-1,2-dihydroquinoline-3-carboxamide]",Ki,hCB2,0.8 ± 0.3 nM
same,Ki,human CB2 (hCB2),6.8 ± 5.8 nM
same,Ki,hCB1,> 10000 nM
same,Ki,human CB1 (hCB1),> 10000 nM
CCCCOc1c(O[11CH3])ccc2cc(C(=O)NCC(F)c3ccccc3)c(=O)[nH]c12 (stereo not drawn) [[^11C]KP23],percentage of parent tracer radioactivity in blood plasma,[1]; 15 min,40%
same,percentage of parent tracer radioactivity in blood plasma,[1]; 30 min,25%
same,number of radiometabolites in blood plasma (more hydrophilic than parent),[1],two to three
same,plasma stability (radioactive degradation products),[2],No radioactive degradation products
same,non-specific binding in spleen tissue,"CB2 in rat spleen slices; rat spleen slices (Figure 1 A2), with 1 μM GW4058233",relatively high non-specific binding
same,binding to CB2 in autoradiography,"CB2 in rat spleen slices; rat spleen slices, 0.6 nM tracer, blocked by excess (1 μM) GW4058233",specific binding
same,brain uptake,"[3]; healthy Wistar rat, i.v., PET, region of interest TAC analysis",low uptake
same,"initial period of steadily increasing activity concentration in spleen, then slow washout","[3]; male, Wistar, rat, in vivo, iv",8 min p.i.
same,time of radioactivity peak in liver,"[3]; male, Wistar, rat, in vivo, iv",around 4 min p.i.
same,spleen uptake,"[3]; rat, in vivo, iv",high spleen uptake
same,non-specific binding in spleen tissue,"[4]; mouse spleen slices (Figure 1 B2), with 1 μM GW4058233",relatively high non-specific binding
same,binding to CB2 in autoradiography,"[4]; mouse spleen slices, 0.6 nM tracer, blocked by excess (1 μM) GW4058233",specific binding
same,plasma stability (radioactive degradation products),[5],No radioactive degradation products
same,stability (radioactive degradation products),[6],No radioactive degradation products
